# According to patent US7208154B2, “Methods and compositions for the treatment of MHC-associated conditions” (Regents of the University of Michigan, priority 2002, dated 2007):
# Tested on: Total cellular protein extracts
# Assay: Peptide affinity chromatography of total cellular protein extracts
# Type: binding
# Details: total cellular protein extracts loaded
# Excerpt: Total cellular protein extracts were loaded onto columns of Sepharose beads, conjugated with either shared epitope-containing peptide 65–78*0404 [SEQ ID NO: 28] or the control peptide 65–78*0402 [SEQ ID NO: 8]. Bound proteins were eluted at low pH. […] 11 sequenced bands matched intracellular proteins, and only two sequences matched previously identified cell surface proteins: heat shock protein 60 (HSP60) and calreticulin. Both calreticulin and HSP60 are chaperones, with strong tendency to form hetero-complexes.
sequence,measurement,value
"KDILEDERAAVDTYC [65–79*0402, control peptide, amino acids 65–79 of the β chain encoded by the HLA-DRB*0402 allele]",Protein binding: distinct bands in low pH eluates of peptide-conjugated Sepharose column,no protein binding was detected
